For 24 compounds, IC50 and MIC results are on record in patent publication US12247004B2, “2-amino-N-(amino-oxo-aryl-lambda6-sulfanylidene)acetamide compounds and their therapeutic use” (Oxford Drug Design Limited, priority 2019, dated 2025).

The structures appear in SMILES notation. pIC50: −log10 of the molar value. Converted amounts (≈) assume the structure as drawn. Like-named read-outs stand apart in the source and are kept apart here. Where only a bound is given, the exact number is not on record here.

As a reminder, the IC50 is the midpoint of a concentration-inhibition curve. As usually defined, the pIC50 is the negative decadic logarithm of the IC50, by convention in mol/L.

Data set [1] is described as follows: Human cell viability / cytotoxicity (CellTiter-Glo, 24 hours). The data set is classed as cell-based. To be noted: human, HepG2 cells (ATCC HB-8065); HepG2 ATCC HB-8065, 24 hours; read-out: Cytotoxicity in HepG2 ATCC HB-8065 Cell Line, IC50. An outline of the steps: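 HepG2 cells (15,000/well, MEM with 1% NEAA and 1% pyruvate) were grown 2 days, then exposed to compounds in duplicate for 24 h at 1.28% DMSO. Viability was read as ATP by CellTiter-Glo luminescence relative to DMSO-only wells. IC50 is in μg/mL.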
(In ATP-based viability assays light output follows the ATP content of the culture.)

The test system of data set [2] is bacteria (ATCC reference strains). Kind of data set: Antibacterial activity, MIC by broth micro-dilution (CLSI). In general terms: In broth dilution the organism is exposed to a series of concentrations in liquid medium.
The target of data set [3] is Isoleucyl-tRNA synthetase (IleRS) (Escherichia coli (strain K12), UniProt P00956). The data set can be described thus: Isoleucyl-tRNA synthetase enzyme inhibition (AMP-Glo; single point % inhibition at 100 μM and IC50). The data set is classed as biochemical. The source says: Study 1—Enzyme Inhibition
The aminoacylation reaction catalyzed by aminoacyl-tRNA synthetases (aaRS) takes place in two steps. In the first step, aaRS activates its cognate amino acid with ATP; and in the second step the activated amino acid is loaded to its corresponding tRNA. This reaction can be summarized as follows: aaRS+aa+ATP=aaRS-aa-AMP+PPi aaRS-aa-AMP+tRNA=aa-tRNA+AMP+aaRS […]
wherein: aaRS, aminoacyl-tRNA synthetase; aa, amino acid; aaRS-aa-AMP, enzyme-bound to aminoacyl-adenylate; AMP, adenosine monophosphate; aa-tRNA, aminoacyl-tRNA, PPi, inorganic pyrophosphate.
Isoleucyl-tRNA Synthetase a. Single Point Percentage Inhibition
The activity of the pathogenic aaRSs was monitored by measuring AMP production using the commercial kit AMP-Glo (Promega, Madison, USA).
Ligand stock solutions were prepared in 100% DMSO at 10 mM concentration. An assay buffer consisting of 100 mM Tris HCl pH 7.6, 40 mM MgCl, 20 mM KCl and 150 mM NaCl was prepared in dH2O. An enzyme solution containing 51.77 μM IleRS was prepared in assay buffer to provide 30 nM final assay concentration and 75 nM reservoir concentration for a 1:2.5 dilution in the assay. A substrate solution was also prepared in assay buffer with 50 mM L-isoleucine, 10 mM ATP and 100 mg/mL tRNA. A final assay concentration of 500 μM L-isoleucine, 5 μM ATP and 1 mg/mL tRNA and reservoir concentration of 833.33 μM L-isoleucine, 8.33 μM ATP and 1.67 mg/mL tRNA was used for a 1:1.66 dilution in assay.
Enzyme percentage inhibition values were recorded in triplicate at a single point concentration of 100 μM.
Using the same enzymatic assay in a 384-well plate format, ten point concentration response curves were generated for each compound using a top concentration of 100 μM. The known inhibitor, IleAMS was used as a positive control for the IleRS assay. 100% DMSO was used as a negative control. The IC50 was calculated based on non-linear regression analysis.

The target of data set [4] is Leucyl-tRNA synthetase (LeuRS) (Escherichia coli (strain K12), UniProt P07813). Kind of data set: Leucyl-tRNA synthetase enzyme inhibition (AMP-Glo; single point % inhibition at 100 μM and IC50). The data set is classed as biochemical. The settings on record: E. coli LeuRS; read-out: Enzyme Inhibition - IC50, E. coli LeuRS.
[5] abbreviates: Acinetobacter baumannii, read-out: Antibacterial Activity (MIC), E = A. baumannii B1931.
Setting [6] is: Enterobacter cloacae, read-out: Antibacterial Activity (MIC), B = Enterobacter cloacae B1966.
[7] abbreviates: Escherichia coli, ATCC25922, read-out: Antibacterial Activity (MIC), A = E. coli ATCC 25922.
Setting [8] is: Haemophilus influenzae, ATCC49247, read-out: Antibacterial Activity (MIC), F = H. influenzae ATCC 49247.
The mark [9] stands for this setting: Klebsiella pneumoniae, ATCC700603, read-out: Antibacterial Activity (MIC), C = K. pneumoniae ATCC 700603.
[10] abbreviates: Pseudomonas aeruginosa, ATCC27853, read-out: Antibacterial Activity (MIC), D = P. aeruginosa ATCC 27853.
Setting [11] is: E. coli IleRS, read-out: Enzyme Inhibition - IC50, E. coli IleRS.

Isoleucyl-tRNA synthetase (IleRS), sequence (P00956 whole entry, looked up): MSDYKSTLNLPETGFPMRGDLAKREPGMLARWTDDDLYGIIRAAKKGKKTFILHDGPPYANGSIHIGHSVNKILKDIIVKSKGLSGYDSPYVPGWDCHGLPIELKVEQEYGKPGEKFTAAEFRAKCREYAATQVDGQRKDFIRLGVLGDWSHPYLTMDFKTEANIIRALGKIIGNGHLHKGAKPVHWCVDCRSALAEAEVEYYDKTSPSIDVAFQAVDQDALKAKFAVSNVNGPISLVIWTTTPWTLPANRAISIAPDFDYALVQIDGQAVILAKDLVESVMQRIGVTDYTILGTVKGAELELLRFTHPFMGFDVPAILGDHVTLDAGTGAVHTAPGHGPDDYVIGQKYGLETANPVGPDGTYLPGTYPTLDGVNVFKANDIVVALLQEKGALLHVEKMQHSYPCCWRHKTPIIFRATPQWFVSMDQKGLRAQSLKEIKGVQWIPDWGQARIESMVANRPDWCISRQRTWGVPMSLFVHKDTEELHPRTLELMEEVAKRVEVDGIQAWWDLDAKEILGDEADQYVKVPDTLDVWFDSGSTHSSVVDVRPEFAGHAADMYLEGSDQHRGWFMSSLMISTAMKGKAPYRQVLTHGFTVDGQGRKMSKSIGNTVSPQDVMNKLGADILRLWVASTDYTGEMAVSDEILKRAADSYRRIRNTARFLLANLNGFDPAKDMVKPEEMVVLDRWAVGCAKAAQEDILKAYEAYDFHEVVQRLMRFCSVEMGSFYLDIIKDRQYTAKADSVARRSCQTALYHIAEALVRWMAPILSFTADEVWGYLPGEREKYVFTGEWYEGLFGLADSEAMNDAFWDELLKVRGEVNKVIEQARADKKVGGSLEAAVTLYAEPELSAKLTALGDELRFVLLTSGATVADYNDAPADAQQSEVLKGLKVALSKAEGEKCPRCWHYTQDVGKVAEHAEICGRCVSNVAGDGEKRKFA
Leucyl-tRNA synthetase (LeuRS), sequence (P07813 whole entry, looked up): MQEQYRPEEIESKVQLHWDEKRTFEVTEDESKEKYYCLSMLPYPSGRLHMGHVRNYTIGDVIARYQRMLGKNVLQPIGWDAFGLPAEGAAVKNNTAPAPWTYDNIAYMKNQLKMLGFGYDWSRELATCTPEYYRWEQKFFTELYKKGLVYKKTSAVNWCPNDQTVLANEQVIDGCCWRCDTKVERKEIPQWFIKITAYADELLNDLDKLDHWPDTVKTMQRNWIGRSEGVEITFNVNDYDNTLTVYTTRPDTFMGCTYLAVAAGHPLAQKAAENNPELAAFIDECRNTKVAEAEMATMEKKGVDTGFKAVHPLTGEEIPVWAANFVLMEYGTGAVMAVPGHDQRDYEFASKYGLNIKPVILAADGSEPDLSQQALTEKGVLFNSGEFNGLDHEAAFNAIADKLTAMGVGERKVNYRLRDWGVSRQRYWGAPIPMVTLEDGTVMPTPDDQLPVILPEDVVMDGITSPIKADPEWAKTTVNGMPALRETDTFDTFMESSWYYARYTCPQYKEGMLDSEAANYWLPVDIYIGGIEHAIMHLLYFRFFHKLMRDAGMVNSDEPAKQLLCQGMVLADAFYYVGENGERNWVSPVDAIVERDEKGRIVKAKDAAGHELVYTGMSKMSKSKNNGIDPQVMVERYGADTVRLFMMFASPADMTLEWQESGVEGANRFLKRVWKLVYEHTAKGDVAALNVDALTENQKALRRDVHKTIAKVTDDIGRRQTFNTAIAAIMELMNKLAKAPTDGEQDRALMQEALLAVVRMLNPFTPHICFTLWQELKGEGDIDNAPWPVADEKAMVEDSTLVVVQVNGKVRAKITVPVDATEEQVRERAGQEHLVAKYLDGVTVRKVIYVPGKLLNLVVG

Regarding `CC[C@H](C)[C@H](N)C(=O)N=[S@@](N)(=O)c1ccc(Cl)s1.Cl` [ANASIA-029-2], the IC50 at 24 h in data set [1] is > 64 µg/mL. Further, the MIC in data set [2] (setting [5]) is > 64 µg/mL; in data set [2] (setting [6]), > 64 µg/mL; in data set [2] (setting [7]), 64 µg/mL; in data set [2] (setting [8]), 16 µg/mL; in data set [2] (setting [9]) it was > 64 µg/mL; in data set [2] (setting [10]), > 64 µg/mL. Further, the pIC50 in data set [3] (setting [11]) is 5.34.

On to `CC[C@H](C)[C@H](N)C(=O)N=[S@@](N)(=O)c1ccc(C)s1.Cl` [ANASIA-031-2], for which the IC50 at 24 h in data set [1] is > 64 µg/mL. The MIC in data set [2] (setting [5]) is > 64 µg/mL; in data set [2] (setting [6]), 64 µg/mL; in data set [2] (setting [7]), 64 µg/mL; in data set [2] (setting [8]), 16 µg/mL; in data set [2] (setting [9]), > 64 µg/mL; in data set [2] (setting [10]) it was > 64 µg/mL. In addition, the negative logarithm of the IC50 (pIC50) in data set [3] (setting [11]) was 5.58.

Turning to `CC[C@H](C)[C@H](N)C(=O)N=S(N)(=O)c1ccc(C)s1` (stereo partly shown) [ANASIA-031], the IC50 at 24 h in data set [1] is > 64 µg/mL. Further, the MIC in data set [2] (setting [5]) is > 64 µg/mL; in data set [2] (setting [6]), > 64 µg/mL; in data set [2] (setting [7]), > 64 µg/mL; in data set [2] (setting [8]), 64 µg/mL (≈ 221 µM); in data set [2] (setting [9]), > 64 µg/mL; in data set [2] (setting [10]), > 64 µg/mL. In addition, in data set [3] (setting [11]), the pIC50 is 5.17.

Take `CC[C@H](C)[C@H](N)C(=O)N=[S@](N)(=O)c1ccc(C)cc1.Cl` [ANASIA-034-1]: the IC50 at 24 h in data set [1] is > 64 µg/mL. Also, the MIC in data set [2] (setting [5]) is > 64 µg/mL; in data set [2] (setting [6]) it was > 64 µg/mL; in data set [2] (setting [7]), > 64 µg/mL; in data set [2] (setting [8]), 64 µg/mL; in data set [2] (setting [9]) it was > 64 µg/mL; in data set [2] (setting [10]) it was > 64 µg/mL. In addition, in data set [3], the pIC50 is 4.83.

In the case of `CC[C@H](C)[C@H](N)C(=O)N=[S@](N)(=O)c1ccc(Cl)cc1` [ANASIA-035-1], the IC50 at 24 h in data set [1] is > 64 µg/mL. In data set [3], this compound had a pIC50 of 4.74.

Take `CC[C@H](C)[C@H](N)C(=O)N=[S@@](N)(=O)c1ccc(Cl)cc1.Cl` [ANASIA-035-2]: the IC50 at 24 h in data set [1] is > 64 µg/mL. The MIC was > 64 µg/mL in data set [2] (setting [5]); > 64 µg/mL in data set [2] (setting [6]); > 64 µg/mL in data set [2] (setting [7]); 64 µg/mL in data set [2] (setting [8]); > 64 µg/mL in data set [2] (setting [9]); > 64 µg/mL in data set [2] (setting [10]). In addition, in data set [3] (setting [11]), the pIC50 was 5.33.

As to `CC[C@H](C)[C@H](N)C(=O)N=[S@](N)(=O)c1ccc(Cl)c(Cl)c1` [ANASIA-036-1], in data set [1], the IC50 at 24 h was > 64 µg/mL. Further, the pIC50 in data set [3] was 5.10.

For `CC[C@H](C)[C@H](N)C(=O)N=S(N)(=O)c1cc2ccccc2s1` (stereo partly shown) [ANASIA-037], the IC50 at 24 h in data set [1] is > 64 µg/mL. Besides, the MIC in data set [2] (setting [5]) was > 64 µg/mL; in data set [2] (setting [6]), > 64 µg/mL; in data set [2] (setting [7]), > 64 µg/mL; in data set [2] (setting [8]), 32 µg/mL (≈ 98.3 µM); in data set [2] (setting [9]) it was > 64 µg/mL; in data set [2] (setting [10]), > 64 µg/mL. Moreover, the pIC50 in data set [3] (setting [11]) is 5.56.

As to `CC[C@H](C)[C@H](N)C(=O)N=S(N)(=O)c1ccc(C(F)F)s1` (stereo partly shown) [ANASIA-038], the 50% inhibitory concentration (IC50) at 24 h in data set [1] was > 64 µg/mL. Moreover, the MIC in data set [2] (setting [5]) is > 64 µg/mL; in data set [2] (setting [6]), > 64 µg/mL; in data set [2] (setting [7]), > 64 µg/mL; in data set [2] (setting [8]), 64 µg/mL (≈ 197 µM); in data set [2] (setting [9]), > 64 µg/mL; in data set [2] (setting [10]) it was > 64 µg/mL. Besides, the pIC50 in data set [3] (setting [11]) is 4.80.

With `CC[C@H](C)[C@H](N)C(=O)N=[S@](N)(=O)c1cccc(Oc2ccc(Cl)cc2)c1` [ANASIA-052-1], the IC50 at 24 h in data set [1] is > 64 µg/mL. Besides, in data set [3], the pIC50 is 4.42.

In the case of `CC[C@H](C)[C@H](N)C(=O)N=[S@](N)(=O)c1cccc(C(F)(F)F)c1` [ANASIA-072-1], the negative logarithm of the IC50 (pIC50) in data set [3] (setting [11]) was 4.27.

`CC[C@H](C)[C@H](N)C(=O)N=[S@](N)(=O)c1cccc(OC(F)(F)F)c1` [ANASIA-077-1]: in data set [3] (setting [11]), the pIC50 is 4.39.

Consider `CC[C@H](C)[C@H](N)C(=O)N=[S@](N)(=O)c1ccsc1Cl` [ANASIA-078-1], for which the pIC50 in data set [3] (setting [11]) is 4.79.

Regarding `CC[C@H](C)[C@H](N)C(=O)N=[S@@](N)(=O)c1ccsc1Cl` [ANASIA-078-2], the pIC50 in data set [3] (setting [11]) is 6.22.

For `CC[C@H](C)[C@H](N)C(=O)N=[S@](N)(=O)c1cscc1C` [ANASIA-079-1], in data set [3] (setting [11]), the pIC50 is 4.70.

`CC[C@H](C)[C@H](N)C(=O)N=[S@@](N)(=O)c1cscc1C.Cl` [ANASIA-079-2]: the MIC in data set [2] (setting [7]) was determined as 64 µg/mL. Besides, the pIC50 in data set [3] (setting [11]) is 6.43.

`CC[C@H](C)[C@H](N)C(=O)N=[S@](N)(=O)c1csc(Cl)c1` [ANASIA-080-1]: the pIC50 in data set [3] (setting [11]) is 5.94.

Take `CC[C@H](C)[C@H](N)C(=O)N=[S@@](N)(=O)c1csc(Cl)c1` [ANASIA-080-2]: in data set [3] (setting [11]), the pIC50 was 4.38.

With `CC[C@H](C)[C@H](N)C(=O)N=S(N)(=O)c1csc2ccsc12` (stereo partly shown) [ANASIA-084], the negative-log IC50 (pIC50) in data set [3] (setting [11]) is 5.55.

As to `CC[C@H](C)[C@H](N)C(=O)N=[S@](N)(=O)c1ccc2c(c1)OCO2` [ANASIA-115-1], the pIC50 in data set [3] (setting [11]) was 5.33.

In the case of `CC[C@H](C)[C@H](N)C(=O)N=[S@](N)(=O)c1scc(Br)c1Br` [ANASIA-116-1], in data set [3] (setting [11]), the negative-log IC50 (pIC50) is 5.42.

On to `CC[C@H](C)[C@H](N)C(=O)N=[S@@](N)(=O)c1scc(Br)c1Br` [ANASIA-116-2], for which, in data set [3] (setting [11]), the pIC50 was 6.02.

Turning to `CC1CCC(N)(C(=O)N=S(N)(=O)c2ccccc2)C1` (stereo not shown) [ANASIA-123], the pIC50 in data set [4] is 5.31; in data set [3] (setting [11]), < 4.00.

Turning to `CC[C@H](C)[C@H](N)C(=O)N=S(N)(=O)c1cc2sccc2s1` (stereo partly shown) [ANASIA-138], the 50% inhibitory concentration (IC50) at 24 h in data set [1] is > 64 µg/mL. Besides, the MIC in data set [2] (setting [5]) is > 64 µg/mL; in data set [2] (setting [6]) it was > 64 µg/mL; in data set [2] (setting [7]), > 64 µg/mL; in data set [2] (setting [8]), 16 µg/mL (≈ 48.3 µM); in data set [2] (setting [9]), > 64 µg/mL; in data set [2] (setting [10]) it was > 64 µg/mL. In data set [3] (setting [11]), the pIC50 was 6.42.
